The values that follow come from US8410113B2, “(2R)-1-(3-chloro-2-pyrazinyl)-2-methylpiperazine and salts thereof” (Biovitrum AB (publ), priority 2002, dated 2013).

Data set [1] is described as follows: Crystallinity (X-rays / powder X-ray diffraction). Type of data set: physicochemical. Particulars: salts of Example 2A.
Description: (§1) Crystallinity (Powder X-Ray Diffraction)
as §1

Data set [2] is described as follows: Hygroscopicity (DVS, storage at RT/different RHs and at 40° C./75% RH). Format: physicochemical. Particulars: salts of Example 2A; for Hygroscopicity: DVS, storage at RT/different RHs. As for the experimental part:
Hygroscopicity (DVS, Storage at RT/Different RHs and at 40° C./75% RH)

Data set [3] is described as follows: Chemical stability (2 weeks at 65° C.). Type of data set: physicochemical. Particulars: salts of Example 2A, also RT/90% RH. Here is the method: Chemical Stability (2 Weeks at 65° C.)
The nature of data set [4]: Polymorphism screen (RT evaporation, cooling crystallization at −20° C.). Particulars: salts of Example 2A, cooling crystallization at −20° C. in different solvent or mixtures. Type of data set: physicochemical.
The conditions of data set [5]: salts of Example 2A; assessment, no test described; cited from earlier work.
Data set [6] is described as follows: Chemical stability during storage. Particulars: long term storage; free base vs hydrochloride.
The target in data set [7] is T1, 5-HT2c receptor (Mus musculus, UniProt P34968).
T1 construct: mice that express the normal 5-HT2c receptor; host or cells: mice (whole animal)
T1 sequence (P34968 33-459): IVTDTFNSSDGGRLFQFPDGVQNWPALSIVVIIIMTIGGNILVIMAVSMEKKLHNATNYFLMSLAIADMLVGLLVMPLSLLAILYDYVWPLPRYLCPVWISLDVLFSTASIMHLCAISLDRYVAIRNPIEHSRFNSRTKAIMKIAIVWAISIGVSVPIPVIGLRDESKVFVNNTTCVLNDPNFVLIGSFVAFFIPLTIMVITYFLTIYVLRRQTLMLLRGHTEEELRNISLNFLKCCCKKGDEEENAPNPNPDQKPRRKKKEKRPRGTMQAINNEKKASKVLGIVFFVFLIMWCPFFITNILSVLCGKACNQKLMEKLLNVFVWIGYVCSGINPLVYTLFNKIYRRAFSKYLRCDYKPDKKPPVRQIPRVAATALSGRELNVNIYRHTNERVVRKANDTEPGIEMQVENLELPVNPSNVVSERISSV
The settings on record: mice that express the normal 5-HT2c receptor; cited from earlier work.

In data set [8] the test system is 5-HT2c receptor. Particulars: mice expressing the mutated inactive form of the 5-HT2c receptor; cited from earlier work.
For data set [9] the following is noted: obese subjects, after 2 weeks of treatment; cited from earlier work.
[10] abbreviates: listed as L-malate, L-malate salt.

Entries after “also recorded” stand apart in the source; their conditions may differ.

As to `C[C@@H]1CNCCN1c1nccnc1OCCOc1cccnc1.O=C(O)C[C@H](O)C(=O)O` [Example 3A, (2R)-methyl-1-{3-[2-(3-pyridinyloxy)ethoxy]-2-pyrazinyl}piperazine, L-malate salt], the “Crystallinity (X-Rays)” value is “higher crystallinity” in [1] (L-malate salt) and “Positive results; also recorded: high crystallinity” in data set [1] (setting [10]). The “behavior upon exposition to 40° C./75% RH” value in data set [2] (40° C./75% RH) was “good behavior”. The Hygroscopicity result in data set [2] (L-malate salt) was “less hygroscopic”; in data set [2] (setting [10]), “low hygroscopicity”. The Chemical stability result is listed as “higher chemical stability” in data set [3] (L-malate salt) and “Positive data; also recorded: high chemical stability” in data set [3] (setting [10]). Moreover, the Polymorphism result in data set [4] was “did not show other polymorphs”. Also, the Toxicological acceptability entry in [5] is “low toxicity”.
`C[C@@H]1CNCCN1c1nccnc1Cl.Cl` [Example 9, (2R)-1-(3-chloro-2-pyrazinyl)-2-methylpiperazine, hydrochloride]: the melting point (usually the temperature of the solid-liquid transition) is 209 to 210.5 °C. The stability for storage result in [6] is recorded as “considerably more stable”.
Take `C[C@@H]1CNCCN1c1nccnc1OCCOc1cccnc1.O=C(O)c1ccccc1` [benzoate, (2R)-methyl-1-{3-[2-(3-pyridinyloxy)ethoxy]-2-pyrazinyl}piperazine, benzoate]: the “Crystallinity (X-Rays)” value in [1] is reported as “Positive results”. For the same molecule, the Hygroscopicity result in [2] is “cake formation and darkening”. Further, the Chemical stability result in data set [3] was “Positive data”. Besides, the Polymorphism entry in data set [4] is “did not show other polymorphs”.
Turning to `Clc1cccc(N2CCNCC2)c1` [mCPP, m-chlorophenylpiperazine], the weight loss result is listed as “causes weight loss” in data set [7] and “lacks activity” in data set [8]. In [9], the body weight result is “slight but sustained reduction in body weight”.
